Test results: patent US20240132457A1, “3-(2-(BENZO[D]THIAZOL-2-YL)-2-(PHENYLSUFONAMIDO)ETHYL)BENZIMIDAMIDE DERIVATIVES AND RELATED COMPOUNDS AS TMPRSS2 INHIBITORS FOR THE TREATMENT OF VIRAL INFECTIONS” (INTEGERBIO, INC., priority 2020, published 2024)

The compounds below were run against T1, Recombinant human TMPRSS2 protein (106-492 aa) (Homo sapiens, UniProt O15393) (assay: TMPRSS2 Assay 1 (Example 41), fluorogenic Boc-Gln-Ala-Arg-AMC cleavage). Details: TMPRSS2 10 nM, substrate 25 μM, 20 min pre-incubation.
T1 construct: Human TMPRSS2-(AA 106-492)-; purchased CusaBio CSB-YP023924HU; host or cells: yeast
T1 sequence (O15393 106-492): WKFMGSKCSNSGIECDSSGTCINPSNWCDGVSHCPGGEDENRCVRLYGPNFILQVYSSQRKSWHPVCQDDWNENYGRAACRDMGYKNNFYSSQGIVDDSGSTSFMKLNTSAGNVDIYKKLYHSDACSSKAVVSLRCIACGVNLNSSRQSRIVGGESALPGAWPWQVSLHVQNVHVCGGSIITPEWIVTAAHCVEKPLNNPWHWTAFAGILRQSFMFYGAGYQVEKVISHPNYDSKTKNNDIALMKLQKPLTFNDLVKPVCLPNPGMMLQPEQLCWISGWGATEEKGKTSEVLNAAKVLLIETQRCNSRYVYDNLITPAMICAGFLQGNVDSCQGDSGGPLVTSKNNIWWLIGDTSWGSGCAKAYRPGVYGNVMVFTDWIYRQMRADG
Format: biochemical
Procedure: The enzyme (TMPRSS2, CusaBio cat #CSB-YP023924HU. Recombinant human TMPRSS2 protein (106-492 aa)N-terminal 6×His-tagged (“6×His” disclosed as SEQ ID NO: 4), expressed in yeast cells; MW=44.8 kDa, lyophilized from 20 mM: Tris HCl, 0.5 M NaCl, 6% Trehalose, pH 8.0, >85% purity as determined by SDS-PAGE. Uniprot: 015393; 10 nM in the reaction) and substrate (Boc-Gln-Ala-Arg-AMC; Enzo Cat #BML-P237-0005, MW=581.76 Da. 25 μM in the reaction) were prepared in Reaction Buffer (50 mM Tris-HCl pH 8, 150 mM NaCl, 0.005% Brij35, 1% DMSO). After the enzyme solution was delivered into the reaction well, the compounds in DMSO were delivered to the reaction mixture by using Acoustic Technology (Echo 550, LabCyte Inc. Sunnyvale, CA) in nanoliter range. After 20 min pre-incubation, the substrate solution was delivered into the reaction well to initiate the reaction. The enzyme activities were monitored every 5 min as a time-course measurement of the increase in fluorescence signal from fluorescently-labeled peptide substrate for 120 min. at room temperature. Data was analyzed by taking slope*(signal/time) of linear portion of measurement. The slope was calculated using Excel, and the curve fits were performed using Prism software.
For `N=C(N)c1cccc(CC(NS(=O)(=O)c2cccc(-c3ccc(Cl)cc3Cl)c2)c2nc3ccccc3s2)c1` (single isomer, unassigned) [3 (enantiomer 1), 3-[2-(1,3-Benzothiazol-2-yl)-2-{2′,4′-dichloro-[1,1′-biphenyl]-3-sulfonamido}ethyl]benzene-1-carboximidamide], the IC50 was over 10 µM. For `N=C(N)c1cccc(CC(NS(=O)(=O)c2cccc(-c3ccc(Cl)cc3Cl)c2)c2nc3ccccc3s2)c1` (single isomer, unassigned) [3 (enantiomer 2), 3-[2-(1,3-Benzothiazol-2-yl)-2-{2′,4′-dichloro-[1,1′-biphenyl]-3-sulfonamido}ethyl]benzene-1-carboximidamide], the IC50 was under 10 µM. For `N=C(N)c1cccc(CC(NS(=O)(=O)c2cccc(-c3ccc(Cl)cc3Cl)c2)c2nccs2)c1` (single isomer, unassigned) [5 (Isomer 1, batch 1), 3-[2-{2′,4′-Dichloro-[1,1′-biphenyl]-3-sulfonamido}-2-(1,3-thiazol-2-yl)ethyl]benzene-1-carboximidamide], the IC50 was under 10 µM. Compound `COc1ccc2nc(C(Cc3cccc(C(=N)N)c3)NS(=O)(=O)c3ccccc3)sc2c1` (single isomer, unassigned) [11 (enantiomer 1), 3-[2-Benzenesulfonamido-2-(6-methoxy-1,3-benzothiazol-2-yl)ethyl]benzene-1-carboximidamide] has an IC50 of over 10 µM. Compound `COc1ccc2nc(C(Cc3cccc(C(=N)N)c3)NS(=O)(=O)c3ccccc3)sc2c1` (single isomer, unassigned) [11 (enantiomer 2), 3-[2-Benzenesulfonamido-2-(6-methoxy-1,3-benzothiazol-2-yl)ethyl]benzene-1-carboximidamide] has an IC50 of under 10 µM. `N=C(N)c1cccc(CC(NS(=O)(=O)c2ccccc2)c2nc3cc(C(F)(F)F)ccc3s2)c1` (single isomer, unassigned) [12 (enantiomer 1), 3-{2-Benzenesulfonamido-2-[5-(trifluoromethyl)-1,3-benzothiazol-2-yl]ethyl}benzene-1-carboximidamide] showed an IC50 of over 10 µM. `N=C(N)c1cccc(CC(NS(=O)(=O)c2ccccc2)c2nc3cc(C(F)(F)F)ccc3s2)c1` (single isomer, unassigned) [12 (enantiomer 2), 3-{2-Benzenesulfonamido-2-[5-(trifluoromethyl)-1,3-benzothiazol-2-yl]ethyl}benzene-1-carboximidamide] was tested, and the IC50 was under 10 µM. `N=C(N)c1cccc(CC(NS(=O)(=O)c2ccccc2)c2nc3cccc(Cl)c3s2)c1` (single isomer, unassigned) [13 (enantiomer 1), 3-[2-Benzenesulfonamido-2-(7-chloro-1,3-benzothiazol-2-yl)ethyl]benzene-1-carboximidamide] gave an IC50 of over 10 µM. For `N=C(N)c1cccc(CC(NS(=O)(=O)c2ccccc2)c2nc3cccc(Cl)c3s2)c1` (single isomer, unassigned) [13 (enantiomer 2), 3-[2-Benzenesulfonamido-2-(7-chloro-1,3-benzothiazol-2-yl)ethyl]benzene-1-carboximidamide], the IC50 was under 10 µM. `N=C(N)c1cccc(CC(NS(=O)(=O)c2ccccc2)c2nc3ccc(C(F)(F)F)cc3s2)c1` (single isomer, unassigned) [14 (enantiomer 1)] showed an IC50 of over 10 µM. `N=C(N)c1cccc(CC(NS(=O)(=O)c2ccccc2)c2nc3ccc(C(F)(F)F)cc3s2)c1` (single isomer, unassigned) [14 (enantiomer 2)] was tested, and the IC50 was under 10 µM. With `N=C(N)c1cccc(CC(NS(=O)(=O)c2ccccc2)c2nc3ccccc3s2)c1` (single isomer, unassigned) [Compound 1 (enantiomer 1, batch 1), 3-[2-Benzenesulfonamido-2-(1,3-benzothiazol-2-yl)ethyl]benzene-1-carboximidamide] the IC50 was over 10 µM. `N=C(N)c1cccc(CC(NS(=O)(=O)c2ccccc2)c2nc3ccccc3s2)c1` (single isomer, unassigned) [Compound 1 (enantiomer 2, batch 1), 3-[2-Benzenesulfonamido-2-(1,3-benzothiazol-2-yl)ethyl]benzene-1-carboximidamide] was tested, and the IC50 was under 10 µM. With `N=C(N)c1cccc(CC(NS(=O)(=O)c2cccc(-c3ccc(Cl)cc3Cl)c2)c2nccs2)c1` (single isomer, unassigned) [Compound 5 (Isomer 2), 3-[2-{2′,4′-Dichloro-[1,1′-biphenyl]-3-sulfonamido}-2-(1,3-thiazol-2-yl)ethyl]benzene-1-carboximidamide] the IC50 was under 10 µM. Compound `N=C(N)c1cccc(CC(NS(=O)(=O)c2cccc(-c3ccc(Cl)cc3Cl)c2)c2nccs2)c1` (single isomer, unassigned) [Compound 5 (Isomer 3), 3-[2-{2′,4′-Dichloro-[1,1′-biphenyl]-3-sulfonamido}-2-(1,3-thiazol-2-yl)ethyl]benzene-1-carboximidamide] has an IC50 of under 10 µM. `N=C(N)c1cccc(C[C@H](NS(=O)(=O)c2ccccc2)c2nc3ccc(C(F)(F)F)cc3s2)c1` [14 (batch 1), 3-[(2S)-2-Benzenesulfonamido-2-[6-(trifluoromethyl)-1,3-benzothiazol-2-yl]ethyl]benzene-1-carboximidamide] showed an IC50 of under 10 µM. `N=C(N)c1cccc(CC(NS(=O)(=O)c2cccc(Br)c2)c2nccs2)c1` (stereo not drawn) [Compound 4, 3-[2-(3-Bromobenzenesulfonamido)-2-(1,3-thiazol-2-yl)ethyl]benzene-1-carboximidamide] showed an IC50 of over 10 µM. With `Cn1cnnc1[C@H](Cc1cccc(C(=N)N)c1)NS(=O)(=O)c1cccc(-c2ccc(Cl)cc2Cl)c1` [Compound 6, 3-[(2S)-2-{2′,4′-Dichloro-[1,1′-biphenyl]-3-sulfonamido}-2-(4-methyl-4H-1,2,4-triazol-3-yl)ethyl]benzene-1-carboximidamide] the IC50 was over 10 µM. Work on `N=C(N)c1cccc(CC(NS(=O)(=O)c2ccccc2)c2ncc[nH]2)c1` (stereo not drawn) [Compound 7, 2-[2-{3-[Amino(iminiumyl)methyl]phenyl}-1-benzenesulfonamidoethyl]-1H-imidazol-3-ium dichloride] yielded an IC50 of over 10 µM. In the case of `COc1ccc2nc(C(Cc3cccc(C(=N)N)c3)NS(=O)(=O)c3ccccc3)sc2c1` (stereo not drawn) [Compound 8, 3-[2-Benzenesulfonamido-2-(6-methoxy-1,3-benzothiazol-2-yl)ethyl]benzene-1-carboximidamide], the IC50 is reported as under 10 µM. In the case of `Cc1ccc2sc(C(Cc3cccc(C(=N)N)c3)NS(=O)(=O)c3ccccc3)nc2c1` (stereo not drawn) [Compound 9, 3-[2-Benzenesulfonamido-2-(5-methyl-1,3-benzothiazol-2-yl)ethyl]benzene-1-carboximidamide], the IC50 is reported as under 10 µM. `N=C(N)c1cccc(CC(NS(=O)(=O)c2ccccc2)c2nc3c(s2)CNCC3)c1` (stereo not drawn) [Compound 10, 3-(2-Benzenesulfonamido-2-{4H,5H,6H,7H-[1,3]thiazolo[5,4-c]pyridin-2-yl}ethyl)benzene-1-carboximidamide] showed an IC50 of over 10 µM. In the case of `N=C(N)c1cccc(CC(NS(=O)(=O)c2ccccc2)c2nc3cc(C(F)(F)F)ccc3s2)c1` (stereo not drawn) [Compound 12, 3-{2-Benzenesulfonamido-2-[5-(trifluoromethyl)-1,3-benzothiazol-2-yl]ethyl}benzene-1-carboximidamide], the IC50 is reported as under 10 µM. In the case of `N=C(N)c1cccc(CC(NS(=O)(=O)c2ccccc2)c2nc3cccc(Cl)c3s2)c1` (stereo not drawn) [Compound 13, 3-[2-Benzenesulfonamido-2-(7-chloro-1,3-benzothiazol-2-yl)ethyl]benzene-1-carboximidamide], the IC50 is reported as under 10 µM. `CN1CCN(c2cccc3nc(C(Cc4cccc(C(=N)N)c4)NS(=O)(=O)c4ccccc4)sc23)CC1` (stereo not drawn) [Compound 15, 3-{2-Benzenesulfonamido-2-[7-(4-methylpiperazin-1-yl)-1,3-benzothiazol-2-yl]ethyl}benzene-1-carboximidamide] gave an IC50 of under 10 µM. `CN(C)CCN(C)c1cccc2nc(C(Cc3cccc(C(=N)N)c3)NS(=O)(=O)c3ccccc3)sc12` (stereo not drawn) [Compound 16, 3-[2-Benzenesulfonamido-2-(7-{[2-(dimethylamino)ethyl](methyl)amino}-1,3-benzothiazol-2-yl)ethyl]benzene-1-carboximidamide] showed an IC50 of over 10 µM. Work on `COCCN(C)c1cccc2nc(C(Cc3cccc(C(=N)N)c3)NS(=O)(=O)c3ccccc3)sc12` (stereo not drawn) [Compound 17, 3-(2-Benzenesulfonamido-2-{7-[(2-methoxyethyl)(methyl)amino]-1,3-benzothiazol-2-yl}ethyl)benzene-1-carboximidamide] yielded an IC50 of under 10 µM. With `N=C(N)c1cccc(CC(NS(=O)(=O)c2ccccc2)c2nc3cnccc3s2)c1` (stereo not drawn) [Compound 18, 3-(2-Benzenesulfonamido-2-{[1,3]thiazolo[4,5-c]pyridin-2-yl}ethyl)benzene-1-carboximidamide] the IC50 was under 10 µM. In the case of `N=C(N)c1cccc(CC(NS(=O)(=O)c2ccccc2)c2nc3cccnc3s2)c1` (stereo not drawn) [Compound 19, 3-(2-Benzenesulfonamido-2-{[1,3]thiazolo[5,4-b]pyridin-2-yl}ethyl)benzene-1-carboximidamide], the IC50 is reported as under 10 µM. Compound `N=C(N)c1cccc(CC(NS(=O)(=O)c2ccccc2)c2nc3ccc(O)cc3s2)c1` (stereo not drawn) [Compound 20, 3-[2-(benzenesulfonamido)-2-(6-hydroxy-1,3-benzothiazol-2-yl)ethyl]benzamidine] has an IC50 of under 10 µM.
